{"source": "patent US20220152204A1", "about": "“PHOTOIMMUNOTHERAPY AND PHARMACEUTICAL AGENT USED THEREFOR” (SHIMADZU CORPORATION, priority 2019, published 2022)", "key": {"[1]": {"system": "Epidermal cancer cells (A431)", "assay": "Observation under fluorescent microscope of A431 cells before and after 690 nm laser exposure", "format": "cell-based", "settings": "20 μg added, 10 minutes at 37° C., 690 nm laser at 50 J", "experimental": "Epidermal cancer cells (A431) were placed at 10,000 cells/mL into a 3.5 mm dish and incubated for 1 day. Subsequently, 20 μg of IF7C-IR700 or IR700 was added to the respective dish and incubation was performed for 10 minutes at 37° C.\nExposure to a 690 nm laser was performed at 50 J, and the A431 cells before and after exposure were observed under a fluorescent microscope (IX61 or IX81; Olympus America). […] From this, it can be inferred that IF7C-IR700 is internalized by cells and undergoes a reaction, causing the cells to shrink."}, "[2]": {"system": "xenograft model animals implanted with A431", "assay": "Mouse experiment: fluorescent intensity monitoring of pharmaceutical agent accumulation in A431 xenograft model animals", "format": "in vivo", "settings": "A431 xenograft mice, 0.033 μmol, Pearl Imager, monitored up to 180 min", "experimental": "Five xenograft model animals implanted with A431 were treated with 0.033 μmol IF7C-IR700, and the fluorescent intensity of body surface, tumor and liver of the mice was monitored at 10 min intervals for up to 60 min and at 30 min intervals for up to 180 min with a Pearl Imager (LI-COR Bioscience) to check for accumulation of pharmaceutical agent. The fluorescent intensity over the tumor reached a maximum at 60 min, so exposure to therapeutic light was performed 60 min after pharmaceutical agent injection to carry out NIR-PIT with IF7C-IR700. For the PIT, exposure to NIR light was performed under conditions which enable cleavage of the IR700, at a wavelength of 680 nm to 690 nm and a dose of 10 J/cm^2."}}, "note": "Ends that are not written are not given here.", "data": [{"substance": "IF7C-IR700: IF7-C peptide (IFLLWQRC, SEQ ID NO: 6) conjugated with IR700 maleimide via the cysteine SH residue (IFLLWQRC(IR700 maleimide))", "values": [{"measurement": "cell shrinkage observed under fluorescent microscope after exposure", "setting": "[1]", "result": "the cells had shrunk"}, {"measurement": "time at which fluorescent intensity over the tumor reached a maximum", "setting": "[2]", "result": 60, "unit": "min"}]}]}
